Tests used:
Type in all cases: biochemical
PKR R510Q = PKR R510Q (Homo sapiens, UniProt P30613, R510Q); assay: PKR Mutant Assay, AC50 against PKR R510Q; settings: mutant PKR R510Q enzyme
Method: (§1) • PKR or PKR mutant enzyme solution was diluted in assay buffer. • 2 μL of test compound was added into wells first, and then 180 μL reaction mix was added. • Reactions mixture with test compound was assembled except for ADP, and plates were stored for 60 minutes at room temperature. • 20 uL ADP was added to start reaction at room temperature and reaction progress was measured as changes in absorbance at 340 nm wavelength at room temperature.
(§2) Test Compound Preparation: • Test compound stock was made at 100× concentration in 100% DMSO (10 mM) • 1 to 3 dilutions were made for 11 points (i.e. 50 μl of first concentration added to 100 μl 100% DMSO to yield 3.33 mM, 50 μl of this added to 100 μl DMSO to yield 1.11 mM, and so forth) • 1 to 100 dilution into assay (2 μl in 200 μl) yielded starting concentration of 100 μM, decreasing 3 fold for 11 points. Assay Buffer: 100 mM KCl, 50 mM Tris 7.5, 5 mM MgCl2, 1 mM DTT, 0.03% BSA Reaction Mixture: PKR mutant enzyme: 80-400 ng/well; ADP: 0.22-1.65 mM; PEP: 0.1-0.5 mM; NADH: 180 uM; LDH: 0.5 units (Sigma#59023); DTT: 1 mM; BSA: 0.03%.

PKR WT = PKR WT (Homo sapiens, UniProt P30613); assay: PKR WT enzymatic AC50 assay; settings: wild type PKR
PKR WT, sequence (P30613 whole entry): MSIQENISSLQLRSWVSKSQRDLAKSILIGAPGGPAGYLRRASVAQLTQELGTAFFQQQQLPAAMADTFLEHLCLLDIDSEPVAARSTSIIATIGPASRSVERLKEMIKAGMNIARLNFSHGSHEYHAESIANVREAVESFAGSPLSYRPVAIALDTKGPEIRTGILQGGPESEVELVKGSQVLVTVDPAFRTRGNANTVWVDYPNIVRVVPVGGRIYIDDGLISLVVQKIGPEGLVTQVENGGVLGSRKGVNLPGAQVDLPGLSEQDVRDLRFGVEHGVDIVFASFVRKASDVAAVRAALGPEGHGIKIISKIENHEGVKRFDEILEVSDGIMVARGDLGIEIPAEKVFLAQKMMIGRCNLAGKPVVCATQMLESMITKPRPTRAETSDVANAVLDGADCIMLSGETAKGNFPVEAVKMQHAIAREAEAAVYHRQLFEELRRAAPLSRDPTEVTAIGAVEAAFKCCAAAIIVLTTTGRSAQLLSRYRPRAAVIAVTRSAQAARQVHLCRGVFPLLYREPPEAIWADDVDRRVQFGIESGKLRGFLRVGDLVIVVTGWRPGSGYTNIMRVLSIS
Method: as §1, §2

PKR R532W = PKR R532W (Homo sapiens, UniProt P30613, R532W); assay: PKR Mutant Assay, AC50 against PKR R532W; settings: mutant PKR R532W enzyme
PKR R532W, sequence (P30613 whole entry R532W): as the sequence (P30613 whole entry) above, with R532W counted along it
Method: as §1, §2

PKR R510Q, sequence (P30613 whole entry R510Q): as the sequence (P30613 whole entry) above, with R510Q counted along it

SMILES	AC50 (PKR R510Q) [nM]	AC50 (PKR WT) [nM]	AC50 (PKR R532W) [nM]
O=C(c1ccc(NS(=O)(=O)c2cccc3scnc23)cc1)N1CCC(O)(c2ccccc2-c2ccccc2Cl)CC1 [Compound 271]	1010 to 10000	101 to 1000	101 to 1000
CC(C)CC1(CO)CCN(C(=O)c2ccc(NS(=O)(=O)c3cccc4nccnc34)cc2)CC1 [Compound 219, N-(4-(4-(hydroxymethyl)-4-isobutylpiperidine-1-carbonyl)phenyl)quinoxaline-5-sulfonamide]	101 to 1000	< 100	< 100
O=C(c1ccc(NS(=O)(=O)c2cccc3nccnc23)cc1)N1CCC(O)(CCC(F)(F)F)CC1 [Compound 221, N-(4-(4-hydroxy-4-(3,3,3-trifluoropropyl)piperidine-1-carbonyl)phenyl)quinoxaline-5-sulfonamide]	101 to 1000	< 100	< 100
O=C(c1ccc(NS(=O)(=O)c2ccc(F)c3cccnc23)cc1)N1CCC(O)(CC2CCC2)CC1 [Compound 201, N-(4-(4-(cyclobutylmethyl)-4-hydroxypiperidine-1-carbonyl)phenyl)-5-fluoroquinoline-8-sulfonamide]	101 to 1000	< 100	< 100
O=C(c1ccc(NS(=O)(=O)c2cccc3cccnc23)cc1)N1CCC(CO)(c2ccccc2)CC1 [Compound 238]	1010 to 10000	101 to 1000	101 to 1000
O=C(c1ccc(NS(=O)(=O)c2cccc3cnccc23)cc1)N1CCC(O)(Cc2ccccc2)CC1 [Compound 283]	1010 to 10000	101 to 1000	101 to 1000
CN1C(=O)C=C2C=C(S(=O)(=O)Nc3ccc(C(=O)N4CCC(O)(Cc5ccccc5)CC4)cc3)C=CC21 (stereo not drawn) [Compound 268]	1010 to 10000	101 to 1000	101 to 1000
O=C(c1ccc(NS(=O)(=O)c2csc3cccnc23)cc1)N1CCC(O)(c2ccccc2Cl)CC1 [Compound 280]	1010 to 10000	101 to 1000	101 to 1000
O=C(c1ccc(NS(=O)(=O)c2cccc3cccnc23)cc1)N1CCC(O)(CCCO)CC1 [Compound 253, N-(4-(4-hydroxy-4-(3-hydroxypropyl)piperidine-1-carbonyl)phenyl)quinoline-8-sulfonamide]	1010 to 10000	101 to 1000	101 to 1000
COc1cccc(C2(O)CCN(C(=O)c3ccc(NS(=O)(=O)c4cccc5cccnc45)cc3)CC2)c1 [Compound 276]	1010 to 10000	101 to 1000	101 to 1000
O=C(c1ccc(NS(=O)(=O)c2ccc(F)c3cccnc23)cc1)N1CCC(O)(Cc2ccccc2F)CC1 [Compound 158, 5-fluoro-N-(4-(4-(2-fluorobenzyl)-4-hydroxypiperidine-1-carbonyl)phenyl)quinoline-8-sulfonamide]	< 100	< 100	< 100
O=C(c1ccc(NS(=O)(=O)c2cccc3nccnc23)c(F)c1)N1CCC(O)(c2ccccc2Cl)CC1 [Compound 251, N-(4-(4-(2-chlorophenyl)-4-hydroxypiperidine-1-carbonyl)-2-fluorophenyl)quinoxaline-5-sulfonamide]	101 to 1000	101 to 1000	101 to 1000
O=C(c1ccc(NS(=O)(=O)c2cccc3scnc23)cc1)N1CCC(O)(CCC(F)F)CC1 [Compound 235, N-(4-(4-(3,3-difluoropropyl)-4-hydroxypiperidine-1-carbonyl)phenyl)benzo[d]thiazole-4-sulfonamide]	101 to 1000	101 to 1000	101 to 1000
CC(C)CC1(CO)CCN(C(=O)c2ccc(NS(=O)(=O)c3cccc4scnc34)cc2)CC1 [Compound 216, N-(4-(4-(hydroxymethyl)-4-isobutylpiperidine-1-carbonyl)phenyl)benzo[d]thiazole-4-sulfonamide]	101 to 1000	< 100	< 100
CC(C)CC1(O)CCN(C(=O)c2ccc(NS(=O)(=O)c3cc(F)cc4scnc34)cc2)CC1 [Compound 202, 6-fluoro-N-(4-(4-hydroxy-4-isobutylpiperidine-1-carbonyl)phenyl)benzo[d]thiazole-4-sulfonamide]	101 to 1000	< 100	< 100
CC(C)CC1(O)CCN(C(=O)c2ccc(NS(=O)(=O)c3ccc(F)c4scnc34)cc2)CC1 [Compound 240, 7-fluoro-N-(4-(4-hydroxy-4-isobutylpiperidine-1-carbonyl)phenyl)benzo[d]thiazole-4-sulfonamide]	101 to 1000	101 to 1000	101 to 1000
N#Cc1cc(C(=O)N2CCC(O)(c3ccccc3Cl)CC2)ccc1NS(=O)(=O)c1cccc2cccnc12 [Compound 273]	1010 to 10000	101 to 1000	101 to 1000
O=C(c1ccc(NS(=O)(=O)c2cccc3nccnc23)cc1)N1CCC(O)(CC2CC2)CC1 [Compound 188, N-(4-(4-(cyclopropylmethyl)-4-hydroxypiperidine-1-carbonyl)phenyl)quinoxaline-5-sulfonamide]	101 to 1000	< 100	< 100

The next lines start with the values.

AC50 (PKR R510Q) [nM]	AC50 (PKR WT) [nM]	AC50 (PKR R532W) [nM]	SMILES
1010 to 10000	101 to 1000	101 to 1000	CC(C)CC1(O)CCN(C(=O)c2ccc(NS(=O)(=O)c3ccc(O)c4nccnc34)cc2)CC1 [Compound 289]
> 10000	101 to 1000	101 to 1000	O=C(c1ccc(NS(=O)(=O)c2cccc3scnc23)cc1)N1CCC(O)(c2cn[nH]c2)CC1 [Compound 410, N-[4-[4-hydroxy-4-(1H-pyrazol-4-yl)piperidine-1-carbonyl]phenyl]benzothiazole-4-sulfonamide]
> 10000	1010 to 10000	1010 to 10000	O=C(c1ccc(NS(=O)(=O)c2cccc3cccnc23)c(F)c1F)N1CCC(O)(c2ccccc2)CC1 [Compound 302]
> 10000	1010 to 10000	1010 to 10000	CC(C)CC1(O)CCN(C(=O)c2ccc(NS(=O)(=O)c3c(F)ccc4ncsc34)cc2)CC1 [Compound 309]
> 10000	> 10000	> 10000	CC(C)CC1(O)CCN(C(=O)c2ccc(NS(=O)(=O)Cc3ccccn3)cc2)CC1 [Compound 324]
> 10000	1010 to 10000	1010 to 10000	O=C(c1ccc(NS(=O)(=O)c2c(F)ccc3ncsc23)cc1)N1CCC(O)(c2ccccc2Cl)CC1 [Compound 303]
101 to 1000	101 to 1000	101 to 1000	CC(C)CC1(O)CCN(C(=O)c2ccc(NS(=O)(=O)c3ccc(F)c4scnc34)cc2)CC1 [Compound 372]
> 10000	1010 to 10000	1010 to 10000	O=C(c1ccc(NS(=O)(=O)c2cccc3snnc23)cc1)N1CCC(O)(c2ccccc2Cl)CC1 [Compound 417]
101 to 1000	< 100	101 to 1000	O=C(c1ccc(NS(=O)(=O)c2cccc3ocnc23)cc1)N1CCC(O)(c2ccccc2Cl)CC1 [Compound 381, N-(4-(4-(2-chlorophenyl)-4-hydroxypiperidine-1-carbonyl)phenyl)benzo[d]oxazole-4-sulfonamide]
1010 to 10000	101 to 1000	101 to 1000	O=C(c1ccc(NS(=O)(=O)c2ccc(F)c3scnc23)cc1)N1CCC(O)(c2ccccc2Cl)CC1 [Compound 368]
> 10000	> 10000	> 10000	O=C(c1ccc(NS(=O)(=O)n2ccc3cccnc32)cc1)N1CCC(O)(c2ccccc2Cl)CC1 [Compound 318]

— patent US9108921B2, “Therapeutic compounds and compositions” (AGIOS PHARMACEUTICALS, INC, priority 2014, dated 2015)
